In experiment [1] the test system is ADtg mice. Kind of experiment: Barnes maze behavioral test in AD mice. The format is in vivo, mouse. Here is the method: (§1) ADtg mice (10 months old) received subcutaneous injections of GA [also known as Cop-1 and Copaxone®; 100 μg in phosphate-buffered saline (PBS)] or PBS alone (control group) twice a week for 1 week and then once a week for 8 weeks. For evaluation of innate immune infiltration to the brain by flow cytometry, 10-month-old ADtg mice received subcutaneous injections of GA (100 mg in PBS) or PBS alone twice a week for 1 week and then once a week for 3 weeks. At the end of the study, all mice were anaesthetized and then perfused with ice-cold PBS with 0.5 mM EDTA, after which their organs were collected and analyzed or fixed in 2.5% paraformaldehyde (Sigma-Aldrich), and cryoprotected with 30% sucrose for further histological analysis.
CD115^+ monocytes from mice donors were isolated as previously reported (Koronyo et al., Brain: a journal of neurology 2015,138:2399-2422). […]
The Barnes maze is a spatial-learning task that allows subjects to use spatial cues to locate a means of escape from a mildly aversive environment (open space with light projection); mice are required to use spatial cues to find an escape location. The mice are assessed for their ability to learn the location of an escape box over the course of 9 days in the Barnes maze apparatus. […]

Experiment [2] relates to ADtg mice. Kind of experiment: Vascular cerebral amyloid angiopathy (CAA) score in ADtg mice. The class given is in vivo, mouse. Conditions: ADtg mice (FIG. 12). As to the method: as §1
Following secondary antibody staining, the brain sections were stained with thioflavin-S(Thio-S, 1% w/v in 70% ethanol) (Sigma-Aldrich) for 10 min at room temperature, washed three times in 70% ethanol, and then washed once in distilled water, for 1 min each.

Experiment [3] concerns infiltrating OPN+CD45high cells. The experiment is described as follows: OPN+CD45high infiltrating cell count in ADtg mouse brain. Conditions: cell count per section, vs PBS controls (FIG. 13F). The class given is in vivo. Here is the method: as §1
CD115^+ monocytes from mice donors were isolated as previously reported (Koronyo et al., Brain: a journal of neurology 2015,138:2399-2422). In brief, bone marrow cells were harvested from the femora, tibiae, and humeri and enriched for mononuclear cells on a Ficoll-Paque® PLUS (17-1440-03, GE Healthcare) density gradient. […]
The number and area (μm^2) of OPN+ cells, Iba1^+CD45^hi cells, GFAP^+ cells, Thio-S^+ amyloid-βplaques and 4G8^+ amyloid-βplaques were determined by examining four to six coronal sections per mouse at 150-μm intervals over an area covering both the hippocampal and cortical (including entorhinal and cingulate cortex) regions. […]

The results in this text go back to patent US11779600B2, “Methods of treating or preventing alzheimer's disease and associated conditions” (CEDARS-SINAI MEDICAL CENTER, priority 2016, dated 2023).

On to glatiramer acetate [GA], for which the cognition entry in the experiment on ADtg mice [1] is listed as “retained cognition”. The “vascular cerebral amyloid angiopathy (CAA) burden” value in the experiment on ADtg mice [2] is listed as “decreases”. Further, in experiment [3], the “increase in number of infiltrating OPN+CD45high cells” value is 1.5 fold.
